Measured values: patent US20090233895A1, “METHOD OF TREATMENT OF BACTERIAL INFECTIONS” (Ethypharm, priority 2006, published 2009)

Legend:
[1] = cefaclor concentration profile (t1/2, cmax) observed in the modified Hollow T-Tube in vitro model
Method: (§1) The counting of E. coli present in the culture medium was measured in vitro in a model simulating the antibacterial treatment with oral beta-lactamine in humans over 24 hours.
(§2) The model simulating the antibacterial treatment used in the examples is a modified “Hollow T-Tube”-model, originally described by Cappellety et al. (Pharmacodynamics of ceftazidime administered as continuous infusion or intermittent bolus alone or in combination with single daily-dose amikacine against Pseudomonas aeruginosa in an in vitro infection model, A.A.C., 1995, 33: 1797-1801) and modified by the inventors (Louchahi et al. A procedure to mimic human impaired kinetic profiles of antibiotics with the hollow glass T-tube in vitro pharmacodynamic model, Abstract no 2116, p. 234, 39th ICAAC, Sep. 26-29, 1999, San Francisco).
Three different elimination half-lives were simulated: • 1. t1/2=45-50 min, which corresponds to a conventional immediate release form of cefaclor, • 2. t1/2=55-60 min, which corresponds to a conventional sustained release form of cefaclor, • 3. t1/2=90-100 min, which corresponds to an extended release form of cefaclor according to the present invention.

E. coli GR2 = test: modified Hollow T-Tube in vitro model simulating antibacterial treatment with oral cefaclor in humans over 24 hours; assay type: cell-based, Escherichia coli; conditions: for Observed Δt > MIC / Δt > MIC: percentage of the dosage interval
Method: The bacteria stem from one strain of Escherichia coli, species that is considered to be non-constantly sensitive. The strain was obtained from M.-H. Nicolas (Hôpital Ambroise Paré, Paris, France) under the code E. coli GR2 with MIC of […]. The usual breakpoints with cefaclor for E. coli are ≦2 mg/l for sensitive strains and >8 mg/l for resistant strains, according to CA-SFM (Comité de l'Antibiogramme de la Société Française de Microbiologie).
The culture media is a Müller-Hinton Broth (MHB) obtained from Pasteur diagnostic (reference 69444). The starting inoculum of E. coli in the culture media is 10^7±5% CFU/ml. The E. coli concentration is measured by nephelometry (Densimat, ref. 99535 ver. A, Biomérieux, France) and standard dilution method.
as §1, §2
In all experiments the period during which, after the addition of cefaclor, the concentration of cefaclor was above the MIC was measured (Δt>MIC). The result is expressed as percentage of the dosage interval.
The variation of the bacterial count was regularly registered during 24 hours. The result is expressed as ΔUFC/ml. For every experiment, the negative sign is highlighting the decreasing count with time since it corresponds to the difference between the initial inoculum at T0 and final bacterial count at T 24 h.

[2] = E1.1: expected t1/2 45-50 min, 500 mg, interval 8 h
[3] = E1.2: expected t1/2 55-60 min, 750 mg, interval 12 h
[4] = E1.3: expected t1/2 90-100 min, 500 mg, interval 8 h
[5] = E1.4: expected t1/2 90-100 min, 750 mg, interval 12 h
[6] = E1.5: expected t1/2 90-100 min, 750 mg, interval 8 h
[7] = E2.1: simulated poor absorber, 500 mg, interval 8 h
[8] = E2.2: simulated standard absorber, 500 mg, interval 8 h
[9] = E2.3: simulated good absorber, 500 mg, interval 8 h

N[C@@H](C(=O)N[C@@H]1C(=O)N2C(C(=O)O)=C(Cl)CS[C@H]12)c1ccccc1 [cefaclor, cefaclor monohydrate]
Observed t1/2 ([1]; E1.1: expected t1/2 45-50 min, 500 mg cefaclor, dosage interval 8 h): 0.767 h | Observed t1/2 ([1]; E1.2: expected t1/2 55-60 min, 750 mg cefaclor, dosage interval 12 h): 0.967 h | Observed t1/2 ([1]; E1.3: expected t1/2 90-100 min, 500 mg cefaclor, dosage interval 8 h): 1.67 h | Observed t1/2 ([1]; E1.4: expected t1/2 90-100 min, 750 mg cefaclor, dosage interval 12 h): 1.68 h | Observed t1/2 ([1]; E1.5: expected t1/2 90-100 min, 750 mg cefaclor, dosage interval 8 h): 1.53 h | Observed t1/2 ([1]; E2.1: simulated poor absorber, expected t1/2 90-100 min, 500 mg, interval 8 h): 1.6 h | Observed t1/2 ([1]; E2.2: simulated standard absorber, expected t1/2 90-100 min, 500 mg, interval 8 h): 1.67 h | Observed t1/2 ([1]; E2.3: simulated good absorber, expected t1/2 90-100 min, 500 mg, interval 8 h): 1.53 h | Δ UFC/ml by 24 h (E. coli GR2; [2]): −1.5 log | Observed Δt > MIC (E. coli GR2; [2]): 50% | Δ UFC/ml by 24 h (E. coli GR2; [3]): −1.5 log | Observed Δt > MIC (E. coli GR2; [3]): 30-35% | Δ UFC/ml by 24 h (E. coli GR2; [4]): −4 log | Observed Δt > MIC (E. coli GR2; [4]): 75% | Δ UFC/ml by 24 h (E. coli GR2; [5]): −1.5 log | Observed Δt > MIC (E. coli GR2; [5]): 58% | Δ UFC/ml by 24 h (E. coli GR2; [6]): >−5 log | Observed Δt > MIC (E. coli GR2; [6]): 87% | Δ UFC/ml by 24 h (E. coli GR2; [7]): −3 log | Δt > MIC (E. coli GR2; [7]): 50% | Δ UFC/ml by 24 h (E. coli GR2; [8]): −4 log | Δt > MIC (E. coli GR2; [8]): 75% | Δ UFC/ml by 24 h (E. coli GR2; [9]): −5 log | Δt > MIC (E. coli GR2; [9]): 87%
